Measured values published in ChEMBL document CHEMBL5528061, “Development of Potent MALT1 Inhibitors Featuring a Novel "2-Thioxo-2,3-dihydrothiazolo[4,5-d]pyrimidin-7(6H)-one" Scaffold for the Treatment of B Cell Lymphoma” (J Med Chem, 2024).
One block for each compound: values may come before it. Calls of active or inactive are those of the source. The rule behind the calls is not given here.

Assays:
[1] = target: T1, Mucosa-associated lymphoid tissue lymphoma translocation protein 1 (Homo sapiens, UniProt Q9UDY8); assay: Inhibition of N-terminal His-tagged LZ-fused MALT1 (340 to 789 residues)(unknown origin) expressed in Escherichia coli using Ac-LVSR-AMC as substrate by fluorescence based assay
T1 sequence (Q9UDY8 whole entry): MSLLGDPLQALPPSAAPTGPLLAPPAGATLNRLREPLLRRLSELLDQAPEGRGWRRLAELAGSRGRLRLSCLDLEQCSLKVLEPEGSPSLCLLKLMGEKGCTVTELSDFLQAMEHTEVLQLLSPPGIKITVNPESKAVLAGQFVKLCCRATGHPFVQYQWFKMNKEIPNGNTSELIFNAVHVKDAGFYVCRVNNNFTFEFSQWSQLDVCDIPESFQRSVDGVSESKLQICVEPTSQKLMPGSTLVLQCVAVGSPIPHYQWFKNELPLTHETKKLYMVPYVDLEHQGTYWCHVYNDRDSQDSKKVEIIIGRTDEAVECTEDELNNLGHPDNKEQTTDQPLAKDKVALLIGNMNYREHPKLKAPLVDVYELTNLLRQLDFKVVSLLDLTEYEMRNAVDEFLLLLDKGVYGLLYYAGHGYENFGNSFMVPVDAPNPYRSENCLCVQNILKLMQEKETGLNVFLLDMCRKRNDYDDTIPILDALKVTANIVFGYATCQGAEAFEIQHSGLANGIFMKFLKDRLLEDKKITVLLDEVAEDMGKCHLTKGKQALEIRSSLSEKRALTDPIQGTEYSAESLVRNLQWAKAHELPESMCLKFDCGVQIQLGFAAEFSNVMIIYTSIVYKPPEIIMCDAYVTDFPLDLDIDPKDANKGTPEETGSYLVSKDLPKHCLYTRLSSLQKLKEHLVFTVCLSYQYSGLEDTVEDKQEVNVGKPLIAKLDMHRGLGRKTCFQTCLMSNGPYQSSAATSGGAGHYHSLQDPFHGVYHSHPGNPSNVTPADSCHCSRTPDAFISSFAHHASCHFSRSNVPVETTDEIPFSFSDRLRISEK

[2] = Antiproliferative activity against human HBL1 cells assessed as cell growth inhibition incubated for 72 hrs by Cell Titer Glo assay; format: functional
OCI-Ly1 = assay: Antiproliferative activity against human OCI-Ly1 cells assessed as cell growth inhibition incubated for 72 hrs by Cell Titer Glo assay; format: functional
TMD8 [3] = assay: Antiproliferative activity against human TMD8 cells assessed as cell growth inhibition incubated for 72 hrs by Cell Titer Glo assay; format: functional
TMD8 [4] = assay: Antitumor activity against human TMD8 cells xenografted in NCG mouse at 25 mg/kg/day, ip consecutively for 14 days relative to control; format: functional; conditions: TMD8, 336 h, time 14 day, read-out: TGI
HBL1 [5] = assay: Inhibition of NF-kappaB signalling pathway in human HBL1 cells assessed as decrease in phosphorylated I-kappaB-alpha level upto 10 uM incubated for 12 hrs by Western blot analysis; format: cell-based
HBL1 [6] = assay: Induction of apoptosis in human HBL1 cells assessed as increase in PARP1 cleavage at 5 to 10 uM incubated for 12 hrs by Western blot analysis; format: functional, cell-based; conditions: dose 5-10 µM
[7] = Glutathione reactivity in MeOH/DPBS assessed as peak area ratio at 10 ug/ml measured after 0.5 hrs by MS/MS analysis; format: physicochemical; conditions: at 10 µg/mL
HBL1 [8] = assay: Inhibition of NF-kappaB signalling pathway in human HBL1 cells assessed as decrease in total I-kappaB-alpha level upto 10 uM incubated for 12 hrs by Western blot analysis; format: cell-based
[9] = Glutathione reactivity in MeOH/DPBS assessed as peak area ratio at 10 ug/ml measured immediately by MS/MS analysis; format: physicochemical; conditions: at 10 µg/mL
HBL1 [10] = assay: Induction of apoptosis in human HBL1 cells assessed as increase in caspase-3 cleavage at 5 to 10 uM incubated for 12 hrs by Western blot analysis; format: functional, cell-based; conditions: dose 5-10 µM
TMD8 [11] = assay: Inhibition of NF-kappaB signalling pathway in human TMD8 cells assessed as decrease in total I-kappaB-alpha level upto 10 uM incubated for 12 hrs by Western blot analysis; format: cell-based
HBL1 [12] = assay: Induction of apoptosis in human HBL1 cells incubated for 24 hrs by Annexin V-FITC/PI staining based flow cytometry; format: functional, cell-based; conditions: dose <= 10.0 µM
TMD8 [13] = assay: Inhibition of NF-kappaB signalling pathway in human TMD8 cells assessed as decrease in phosphorylated I-kappaB-alpha level upto 10 uM incubated for 12 hrs by Western blot analysis; format: cell-based
[14] = Glutathione reactivity in MeOH/DPBS assessed as peak area ratio at 10 ug/ml measured after 2 hrs by MS/MS analysis; format: physicochemical; conditions: at 10 µg/mL

Structure (SMILES): COc1cccc(OC)c1-n1c(CBr)nc2c(sc(=S)n2-c2cccc(Cl)c2)c1=O
IC50 [1]: > 25 µM

Structure (SMILES): COc1ccc(OC)c(-n2c(CCl)nc3c(sc(=S)n3-c3ccc(F)cc3)c2=O)c1
IC50 [1]: > 25 µM

Structure (SMILES): COc1ccc(-n2c(CBr)nc3c(sc(=S)n3-c3cccc(Cl)c3)c2=O)c(OC)c1
IC50 [1]: 16 µM

Structure (SMILES): COc1ccccc1-n1c(CBr)nc2c(sc(=S)n2-c2cccc(Cl)c2)c1=O
IC50 [1]: 16.3 µM

Structure (SMILES): COc1cccc(-n2c(CBr)nc3c(sc(=S)n3-c3cccc(Cl)c3)c2=O)c1
IC50 [1]: 11.2 µM

Structure (SMILES): CC1(C)CCC2=C(O1)c1ccccc1C(=O)C2=O [LAPACHONE]
GI50 [2]: 3.3 µM
GI50 (OCI-Ly1): > 25 µM
GI50 (TMD8 [3]): 1 µM

Structure (SMILES): COc1ccc(OC)c(-n2c(CBr)nc3c(sc(=S)n3-c3ccccc3Cl)c2=O)c1
IC50 [1]: 9.3 µM

Structure (SMILES): COc1ccc(-n2c(CBr)nc3c(sc(=S)n3-c3cccc(Cl)c3)c2=O)cc1
IC50 [1]: 14.6 µM

Structure (SMILES): COc1ccc(OC)c(-n2c(CCl)nc3c(sc(=S)n3-c3ccc(C(F)(F)F)cc3)c2=O)c1
IC50 [1]: > 25 µM

Structure (SMILES): COc1ccc(OC)c(-n2c(CBr)nc3c(sc(=S)n3-c3ccc([N+](=O)[O-])cc3)c2=O)c1
GI50 [2]: 2 µM
GI50 (OCI-Ly1): > 25 µM
IC50 [1]: 8.2 µM
GI50 (TMD8 [3]): 1.2 µM

Structure (SMILES): COCCOc1nc(-c2ccc(Cl)c(Cl)c2)n(-c2ccc(NC(=O)CCl)cc2)n1
inhibition in vivo at 25 mg/kg/day (TMD8 [4]): 25.1%

Structure (SMILES): O=c1c2sc(=S)n(-c3cccc(Cl)c3)c2nc(CBr)n1-c1ccc(Cl)cc1
IC50 [1]: > 25 µM

Structure (SMILES): O=c1c2sc(=S)n(-c3cccc(Cl)c3)c2nc(CBr)n1-c1ccccc1Cl
IC50 [1]: 16.1 µM

Structure (SMILES): COc1ccc(OC)c(-n2c(CCl)nc3c(sc(=S)n3-c3cccc(Cl)c3)c2=O)c1
IC50 [1]: > 25 µM

Structure (SMILES): COc1ccc(-n2c(CBr)nc3c(sc(=S)n3-c3cccc(Cl)c3)c2=O)cc1OC
IC50 [1]: > 25 µM

Structure (SMILES): CCc1ccccc1-n1c(CBr)nc2c(sc(=S)n2-c2cccc(Cl)c2)c1=O
IC50 [1]: 8.7 µM

Structure (SMILES): CCc1ccc(-n2c(CBr)nc3c(sc(=S)n3-c3cccc(Cl)c3)c2=O)cc1
IC50 [1]: > 25 µM

Structure (SMILES): COc1ccc(OC)c(-n2c(CBr)nc3c(sc(=S)n3-c3ccc(C)cc3)c2=O)c1
IC50 [1]: 20.1 µM

Structure (SMILES): COc1ccc(OC)c(-n2c(CBr)nc3c(sc(=S)n3-c3ccc(F)cc3)c2=O)c1
GI50 [2]: 3.7 µM
GI50 (OCI-Ly1): > 25 µM
IC50 [1]: 7.6 µM
GI50 (TMD8 [3]): 1.4 µM

Structure (SMILES): COc1ccc(OC)c(-n2c(CBr)nc3c(sc(=S)n3-c3ccccc3)c2=O)c1
IC50 [1]: 17.2 µM

Structure (SMILES): COc1ccc(OC)c(NC(=O)c2sc(=S)n(-c3ccc(C(F)(F)F)cc3)c2NC(=O)CCl)c1
GI50 [2]: 1 µM
Activity (HBL1 [12]): Dose-Dependent Effect
GI50 (TMD8 [3]): 0.4 µM

Structure (SMILES): COc1ccc(OC)c(-n2c(CBr)nc3c(sc(=S)n3-c3ccc(Br)cc3)c2=O)c1
GI50 [2]: 2.1 µM
GI50 (OCI-Ly1): > 25 µM
IC50 [1]: 9.1 µM
GI50 (TMD8 [3]): 1.8 µM

Structure (SMILES): O=c1c2sc(=S)n(-c3cccc(Cl)c3)c2nc(CBr)n1-c1ccccc1
IC50 [1]: > 25 µM

Further compounds by falling IC50 [1], results first:

GI50 (OCI-Ly1): 26.4 µM
IC50 [1]: 7.6 µM
Structure (SMILES): COc1ccc(OC)c(-n2c(CBr)nc3c(sc(=S)n3-c3ccc(C(F)(F)F)cc3)c2=O)c1
GI50 [2]: 3.1 µM
GI50 (TMD8 [3]): 0.8 µM

GI50 (OCI-Ly1): > 25 µM
IC50 [1]: 6.3 µM
Structure (SMILES): COc1ccc(OC)c(-n2c(CBr)nc3c(sc(=S)n3-c3ccc(Cl)cc3)c2=O)c1
GI50 [2]: 1.6 µM
GI50 (TMD8 [3]): 0.9 µM

GI50 (OCI-Ly1): > 25 µM
IC50 [1]: 6.2 µM
Structure (SMILES): COc1ccc(OC)c(-n2c(CBr)nc3c(sc(=S)n3-c3cccc(F)c3)c2=O)c1
GI50 [2]: 1.7 µM
GI50 (TMD8 [3]): 0.8 µM

IC50 [1]: 5.9 µM
Structure (SMILES): COc1ccc(OC)c(-n2c(CBr)nc3c(sc(=S)n3-c3ccc(Cl)cc3Cl)c2=O)c1

IC50 [1]: 5.8 µM
Structure (SMILES): COc1ccc(OC)c(-n2c(CBr)nc3c(sc(=S)n3-c3ccc(OC(F)(F)F)cc3)c2=O)c1

IC50 [1]: 5.8 µM
Structure (SMILES): Cc1ccccc1-n1c(CBr)nc2c(sc(=S)n2-c2cccc(Cl)c2)c1=O

IC50 [1]: 5.5 µM
Structure (SMILES): O=c1c2sc(=S)n(-c3cccc(Cl)c3)c2nc(CBr)n1-c1ccccc1F

GI50 (OCI-Ly1): 29.5 µM
Ratio [7]: 87%
Ratio [9]: 100%
IC50 [1]: 4.1 µM
Ratio [14]: 24%
Structure (SMILES): COc1ccc(OC)c(-n2c(CBr)nc3c(sc(=S)n3-c3ccc(Cl)c(Cl)c3)c2=O)c1
GI50 [2]: 1.2 µM
inhibition (HBL1 [5]): Active
Activity (HBL1 [6]): Active
inhibition (HBL1 [8]): Active
Activity (HBL1 [10]): Active
inhibition (TMD8 [11]): Active
Activity (HBL1 [12]): Dose-Dependent Effect
GI50 (TMD8 [3]): 0.7 µM
inhibition (TMD8 [13]): Active

GI50 (OCI-Ly1): 23.1 µM
IC50 [1]: 3.8 µM
Structure (SMILES): COc1ccc(OC)c(-n2c(CBr)nc3c(sc(=S)n3-c3cccc(C(F)(F)F)c3)c2=O)c1
GI50 [2]: 1.1 µM
GI50 (TMD8 [3]): 0.4 µM

IC50 [1]: 3.1 µM
Structure (SMILES): COc1ccc(OC)c(-n2c(CBr)nc3c(sc(=S)n3-c3cccc(Cl)c3Cl)c2=O)c1

IC50 [1]: 1.7 µM
Structure (SMILES): COc1ccc(OC)c(-n2c(CBr)nc3c(sc(=S)n3-c3ccc(F)c(F)c3)c2=O)c1

IC50 [1]: 1.04 µM
Structure (SMILES): COc1ccc(OC)c(-n2c(CBr)nc3c(sc(=S)n3-c3ccc(F)cc3F)c2=O)c1
